Legend:
Assay type in all cases: cell-based
DENV-1 strain TC974#666 = test: Tetravalent RT-qPCR assay Protocol A, serotype 1; settings: Dengue virus, DENV1, 72 h, RT-qPCR serotype 1 TC974#666, Vero cells, 3 days
Description: (§1) The antiviral activity of the compounds of the invention was tested against DENV-1 strain TC974#666 (NCPV), DENV-2 strain 16681, DENV-3 strain H87 (NCPV) and DENV-4 strains H241 (NCPV) and EDEN (SG/06K2270DK1/2005; GenBank accession number QG398256) in a RT-qPCR assay. Therefore, Vero cells were infected with either DENV-1, or -2, or -3, or -4 in the presence or absence of test compounds. At day 3 post-infection, the cells were lysed and cell lysates were used to prepare cDNA of both a viral target (the 3′UTR of DENV; table 2) and a cellular reference gene (β-actin, table 2). Subsequently, a duplex real time PCR was performed on a Lightcycler480 instrument. The generated Cp value is inversely proportional to the amount of RNA expression of these targets. Inhibition of DENV replication by a test compound result in a shift of Cp's for the 3′UTR gene. On the other hand, if a test compound is toxic to the cells, a similar effect on β-actin expression will be observed. The comparative ΔΔCp method is used to calculate EC50, which is based on the relative gene expression of the target gene (3′UTR) normalized with the cellular housekeeping gene (β-actin). In addition, CC50 values were determined based on the Cp values acquired for the housekeeping gene β-actin.
(§2) The culture medium consisted of minimal essential medium supplemented with 2% of heat-inactivated fetal calf serum, 0.04% gentamycin (50 mg/mL) and 2 mM of L-glutamine. Vero cells, obtained from ECACC, were suspended in culture medium and 75 μL/well was added in 96-well plates (10000 cells/well), which already contain the antiviral compounds. Typically, these plates contain a 4-fold serial dilution of 9 dilution steps of the test compound at 200 times the final concentration in 100% DMSO (500 nL; final concentration range: 25 μM-0.00038 μM). In addition, each plate contains wells which are assigned as virus controls (containing cells and virus in the absence of compound) and cell controls (containing cells in the absence of virus and compound). Once the cells were added in the plates, the plates were incubated in a fully humidified incubator (37° C., 5% CO2) until the next day. Then, DENV-1 strain TC974#666, DENV-2 strain 16681, DENV-3 strain H87 or DENV-4 strains H241 or EDEN were added. […] In parallel, 25 μL of culture medium was added to the cell controls. Next, the plates were incubated for 3 days in a fully humidified incubator (37° C., 5% CO2). After 3 days, the supernatant was removed from the wells and the cells were washed twice with ice-cold PBS (˜100 μL). The cell pellets within the 96-well plates were stored at −80° C. for at least 1 day. Next, RNA was extracted using the Cells-to-CT™ lysis kit, according to the manufacture's guideline (Applied Biosystems). The cell lysates can be stored at −80° C. or immediately used in the reverse transcription step.
(§3) In preparation of the reverse transcription step, mix A (table 3A) was prepared and 7.57 μL/well was dispensed in a 96-well plate. After addition of 5 μL of the cell lysates, a five minute denaturation step at 75° C. was performed (table 3B). Afterwards, 7.43 μL of mix B was added (table 3C) and the reverse transcription step was initiated (table 3D) to generate cDNA.
(§4) Finally, a RT-qPCR mix was prepared, mix C (table 4A), dispensed in 96-well LightCycler qPCR plates to which 3 μL of cDNA was added and the qPCR was performed according to the conditions in table 4B on a LightCycler 480.
(§5) Using the LightCycler software and an in-house LIMS system, dose response curves for each compound were calculated and the half maximal effective concentration (EC50) and the half maximal cytotoxic concentration (CC50) were determined (Tables 6-9).

DENV-2 strain 16681 = test: Tetravalent RT-qPCR assay Protocol A, serotype 2; settings: Dengue virus, DENV2, 72 h, RT-qPCR serotype 2 16681, Vero cells, 3 days
Description: as §1, §2, §3, §4, §5

DENV-3 strain H87 = test: Tetravalent RT-qPCR assay Protocol A, serotype 3; settings: Dengue virus, DENV3, 72 h, RT-qPCR serotype 3 H87, Vero cells, 3 days
Description: as §1, §2, §3, §4, §5

[1] = tested on: DENV-4 strain EDEN (SG/06K2270DK1/2005); test: Tetravalent RT-qPCR assay Protocol A, serotype 4 EDEN; settings: Dengue virus, DENV4, 72 h, RT-qPCR serotype 4 EDEN, Vero cells, 3 days
Description: as §1, §2, §3, §4, §5

in vitro = settings: African green monkey
Description: as §1, §2, §5

Row | SMILES | EC50 (DENV-1 strain TC974#666) | EC50 (DENV-2 strain 16681) | EC50 (DENV-3 strain H87) | EC50 [1] | CC50 at 3 days (in vitro)
1 | COc1cc(NC(C(=O)c2c[nH]c3cc(F)ccc23)c2ccc(Cl)cc2OC)cc(OCCO)c1 (single isomer, unassigned) [Compound 1A, 2-(4-chloro-2-methoxyphenyl)-1-(6-fluoro-1H-indol-3-yl)-2-((3-(2-hydroxyethoxy)-5-methoxyphenyl)amino)ethanone] | 7.7 nM | 1.1 nM | 63 nM | 6.2 nM | 
2 | COc1cc(NC(C(=O)c2c[nH]c3c(C)c(F)ccc23)c2ccc(Cl)cc2OC)cc(OCCO)c1 (single isomer, unassigned) [Compound 2A, 2-(4-chloro-2-methoxyphenyl)-1-(6-fluoro-7-methyl-1H-indol-3-yl)-2-((3-(2-hydroxyethoxy)-5-methoxyphenyl)amino)ethanone] | 7.1 nM | 0.85 nM | 53 nM | 4.3 nM | 
3 | COc1cc(NC(C(=O)c2c[nH]c3c(C)c(Cl)ccc23)c2ccc(Cl)cc2OC)cc(OCCO)c1 (single isomer, unassigned) [Compound 3A, 2-(4-chloro-2-methoxyphenyl)-1-(6-chloro-7-methyl-1H-indol-3-yl)-2-((3-(2-hydroxyethoxy)-5-methoxyphenyl)amino)ethanone] | 5.3 nM | 0.24 nM | 36 nM | 2.9 nM | 3800 nM
4 | COc1cc(NC(C(=O)c2c[nH]c3cc(Cl)ccc23)c2ccc(Cl)cc2OC)cc(OCCO)c1 (single isomer, unassigned) [Compound 4A, 1-(6-chloro-1H-indol-3-yl)-2-(4-chloro-2-methoxyphenyl)-2-((3-(2-hydroxyethoxy)-5-methoxyphenyl)amino)ethanone] | 7.8 nM | 0.44 nM | 65 nM | 5.2 nM | 
5 | COc1cc(NC(C(=O)c2c[nH]c3cc(OC)ccc23)c2ccc(Cl)cc2OC)cc(OCCO)c1 (single isomer, unassigned) [Compound 5A, 2-(4-chloro-2-methoxyphenyl)-2-((3-(2-hydroxyethoxy)-5-methoxyphenyl)amino)-1-(6-methoxy-1H-indol-3-yl)ethanone] | 13 nM | 0.5 nM | 68 nM | 4.6 nM | 5200 nM
6 | COc1cc(NC(C(=O)c2c[nH]c3cc(OC)c(C)cc23)c2ccc(Cl)cc2OC)cc(OCCO)c1 (single isomer, unassigned) [Compound 6A, 2-(4-chloro-2-methoxyphenyl)-2-((3-(2-hydroxyethoxy)-5-methoxyphenyl)amino)-1-(6-methoxy-5-methyl-1H-indol-3-yl)ethanone] | 3.6 nM | 0.54 nM | 26 nM | 2.9 nM | 
7 | COc1cc(NC(C(=O)c2c[nH]c3cc(OC)c(F)cc23)c2ccc(Cl)cc2OC)cc(OCCO)c1 (single isomer, unassigned) [Compound 7A, 2-(4-chloro-2-methoxyphenyl)-1-(5-fluoro-6-methoxy-1H-indol-3-yl)-2-((3-(2-hydroxyethoxy)-5-methoxyphenyl)amino)ethanone] | 16 nM | 0.91 nM | 70 nM | 6.6 nM | 4600 nM
8 | COc1cc(NC(C(=O)c2c[nH]c3c(C)cc(F)cc23)c2ccc(Cl)cc2OC)cc(OCCO)c1 (single isomer, unassigned) [Compound 8A, 2-(4-chloro-2-methoxyphenyl)-1-(5-fluoro-7-methyl-1H-indol-3-yl)-2-((3-(2-hydroxyethoxy)-5-methoxyphenyl)amino)ethanone] | 9.6 nM | 1.2 nM | 76 nM | 6.5 nM | 3500 nM
9 | COc1cc(NC(C(=O)c2c[nH]c3cc(F)c(F)cc23)c2ccc(Cl)cc2OC)cc(OCCO)c1 (single isomer, unassigned) [Compound 9A, 2-(4-chloro-2-methoxyphenyl)-1-(5,6-difluoro-1H-indol-3-yl)-2-((3-(2-hydroxyethoxy)-5-methoxyphenyl)amino)ethanone] | 5 nM | 0.79 nM | 63 nM | 4.7 nM | 4700 nM
10 | COc1cc(NC(C(=O)c2c[nH]c3c(F)cc(C)cc23)c2ccc(Cl)cc2OC)cc(OCCO)c1 (single isomer, unassigned) [Compound 10A, 2-(4-chloro-2-methoxyphenyl)-1-(7-fluoro-5-methyl-1H-indol-3-yl)-2-((3-(2-hydroxyethoxy)-5-methoxyphenyl)amino)ethanone] | 14 nM | 3.2 nM | 70 nM | 8.6 nM | 4100 nM
11 | COc1cc(NC(C(=O)c2c[nH]c3c(F)c(F)ccc23)c2ccc(Cl)cc2OC)cc(OCCO)c1 (single isomer, unassigned) [Compound 11B, 2-(4-chloro-2-methoxyphenyl)-1-(6,7-difluoro-1H-indol-3-yl)-2-((3-(2-hydroxyethoxy)-5-methoxyphenyl)amino)ethanone] | 18 nM | 1 nM | 70 nM | 9.8 nM | 3700 nM
